Assays:
Assay in all cases: Phage-Mediated Detection of Staphylococcus aureus
Format in all cases: cell-based
[1] = test system: Staphylococcus aureus strain AR0491 (MSSA, CDC Panel)
Procedure: (§1) Samples of methicillin-resistant S. aureus (MRSA) were primed by adding 135 μl of samples containing S. aureus to rich media. The rich media included sub-inhibitory antibiotic (cefoxitin) to allow for specific enrichment and induction of MRSA. Samples were incubated in rich media for 1-2 hours. Following the priming of the samples, additional cefoxitin was added to the media and samples were incubated for an additional 2 hours. Staphylococcus aureus-specific bacteriophage NanoLuc Indicator phage was added to the samples and incubated for 2 hours. Lysis buffer and NANO-GLO® reagent were added. Following 5 minutes of incubation, measurements of bioluminescence were taken using a GLOMAX® 96 instrument. A signal/background ratio ≥750 RLU indicated positive detection of S. aureus. A signal/background ratio of <750 RLU indicated the sample was negative for S. aureus.

[2] = test system: Staphylococcus aureus strain AR0492 (MSSA, CDC Panel)
Procedure: as §1

[3] = test system: Staphylococcus aureus strain 12600 (MSSA, ATCC)
Procedure: as §1

[4] = test system: Staphylococcus aureus strain AR0475 (MRSA, CDC Panel)
Procedure: as §1

[5] = test system: Staphylococcus aureus strain AR0483 (MRSA, CDC Panel)
Procedure: as §1

[6] = test system: Staphylococcus aureus strain AR0488 (MSSA, CDC Panel)
Procedure: as §1

[7] = test system: Staphylococcus aureus strain BAA-42 (MRSA, ATCC)
Procedure: as §1

[8] = test system: Staphylococcus aureus strain AR0485 (MSSA, CDC Panel)
Procedure: as §1

[9] = test system: Staphylococcus aureus strain AR0489 (MSSA, CDC Panel)
Procedure: as §1

[10] = test system: Staphylococcus aureus strain AR0474 (MRSA, CDC Panel)
Procedure: as §1

[11] = test system: Staphylococcus aureus strain AR0463 (MRSA, CDC Panel)
Procedure: as §1

[12] = test system: Staphylococcus aureus strain AR0468 (MRSA, CDC Panel)
Procedure: as §1

[13] = test system: Staphylococcus aureus strain BAA-1721 (MSSA, ATCC)
Procedure: as §1

[14] = test system: Staphylococcus aureus strain AR0472 (MRSA, CDC Panel)
Procedure: as §1

[15] = test system: Staphylococcus aureus strain AR0481 (MRSA, CDC Panel)
Procedure: as §1

[16] = test system: Staphylococcus aureus strain AR0476 (MRSA, CDC Panel)
Procedure: as §1

[17] = test system: Staphylococcus aureus strain AR0480 (MRSA, CDC Panel)
Procedure: as §1

[18] = test system: Staphylococcus aureus strain AR0487 (MSSA, CDC Panel)
Procedure: as §1

[19] = test system: Staphylococcus aureus strain BAA-2094 (MRSA, ATCC)
Procedure: as §1

[20] = test system: Staphylococcus aureus strain AR0490 (MSSA, CDC Panel)
Procedure: as §1

[21] = test system: Staphylococcus aureus strain AR0478 (MRSA, CDC Panel)
Procedure: as §1

CO[C@@]1(NC(=O)Cc2cccs2)C(=O)N2C(C(=O)O)=C(COC(N)=O)CS[C@@H]21 [Cefoxitin, cefoxitin]
Cefoxitin Concentration 1 ug/mL (indicator phage luminescence signal) ([1]; detected CFU 217, cefoxitin 1 ug/mL): 40760 RLU
Cefoxitin Concentration 2 ug/mL (indicator phage luminescence signal) ([1]; detected CFU 217, cefoxitin 2 ug/mL): 215 RLU
Cefoxitin Concentration 4 ug/mL (indicator phage luminescence signal) ([1]; detected CFU 217, cefoxitin 4 ug/mL): 266 RLU
Cefoxitin Concentration 1 ug/mL (indicator phage luminescence signal) ([2]; detected CFU 178, cefoxitin 1 ug/mL): 13040 RLU
Cefoxitin Concentration 2 ug/mL (indicator phage luminescence signal) ([2]; detected CFU 178, cefoxitin 2 ug/mL): 194 RLU
Cefoxitin Concentration 1.8 ug/mL (indicator phage luminescence signal) ([3]; detected CFU 59, cefoxitin 1.8 ug/mL): 508 RLU
Cefoxitin Concentration 1 ug/mL (indicator phage luminescence signal) ([3]; detected CFU 406, cefoxitin 1 ug/mL): 18310 RLU
Cefoxitin Concentration 2 ug/mL (indicator phage luminescence signal) ([3]; detected CFU 406, cefoxitin 2 ug/mL): 178 RLU
Cefoxitin Concentration 4 ug/mL (indicator phage luminescence signal) ([3]; detected CFU 406, cefoxitin 4 ug/mL): 196 RLU
Cefoxitin Concentration 1 ug/mL (indicator phage luminescence signal) ([4]; detected CFU 134, cefoxitin 1 ug/mL): 52460 RLU
Cefoxitin Concentration 2 ug/mL (indicator phage luminescence signal) ([4]; detected CFU 134, cefoxitin 2 ug/mL): 57660 RLU
Cefoxitin Concentration 4 ug/mL (indicator phage luminescence signal) ([4]; detected CFU 134, cefoxitin 4 ug/mL): 34040 RLU
Cefoxitin Concentration 1 ug/mL (indicator phage luminescence signal) ([5]; detected CFU 12, cefoxitin 1 ug/mL): 39250 RLU
Cefoxitin Concentration 2 ug/mL (indicator phage luminescence signal) ([5]; detected CFU 12, cefoxitin 2 ug/mL): 24390 RLU
Cefoxitin Concentration 4 ug/mL (indicator phage luminescence signal) ([5]; detected CFU 12, cefoxitin 4 ug/mL): 9081 RLU
Cefoxitin Concentration 1 ug/mL (indicator phage luminescence signal) ([6]; detected CFU 151, cefoxitin 1 ug/mL): 15430 RLU
Cefoxitin Concentration 2 ug/mL (indicator phage luminescence signal) ([6]; detected CFU 151, cefoxitin 2 ug/mL): 207 RLU
Cefoxitin Concentration 4 ug/mL (indicator phage luminescence signal) ([6]; detected CFU 151, cefoxitin 4 ug/mL): 197 RLU
Cefoxitin Concentration 1 ug/mL (indicator phage luminescence signal) ([7]; detected CFU 165, cefoxitin 1 ug/mL): 8634 RLU
Cefoxitin Concentration 2 ug/mL (indicator phage luminescence signal) ([7]; detected CFU 165, cefoxitin 2 ug/mL): 775 RLU
Cefoxitin Concentration 4 ug/mL (indicator phage luminescence signal) ([7]; detected CFU 165, cefoxitin 4 ug/mL): 240 RLU
Cefoxitin Concentration 1 ug/mL (indicator phage luminescence signal) ([8]; detected CFU 190, cefoxitin 1 ug/mL): 13930 RLU
Cefoxitin Concentration 2 ug/mL (indicator phage luminescence signal) ([8]; detected CFU 190, cefoxitin 2 ug/mL): 236 RLU
Cefoxitin Concentration 4 ug/mL (indicator phage luminescence signal) ([8]; detected CFU 190, cefoxitin 4 ug/mL): 301 RLU
Cefoxitin Concentration 1 ug/mL (indicator phage luminescence signal) ([9]; detected CFU 144, cefoxitin 1 ug/mL): 30590 RLU
Cefoxitin Concentration 2 ug/mL (indicator phage luminescence signal) ([9]; detected CFU 144, cefoxitin 2 ug/mL): 188 RLU
Cefoxitin Concentration 4 ug/mL (indicator phage luminescence signal) ([9]; detected CFU 144, cefoxitin 4 ug/mL): 207 RLU
Cefoxitin Concentration 1 ug/mL (indicator phage luminescence signal) ([10]; detected CFU 477, cefoxitin 1 ug/mL): 3449 RLU
Cefoxitin Concentration 2 ug/mL (indicator phage luminescence signal) ([10]; detected CFU 477, cefoxitin 2 ug/mL): 2235 RLU
Cefoxitin Concentration 4 ug/mL (indicator phage luminescence signal) ([10]; detected CFU 477, cefoxitin 4 ug/mL): 1684 RLU
Cefoxitin Concentration 1.8 ug/mL (indicator phage luminescence signal) ([11]; detected CFU 28, cefoxitin 1.8 ug/mL): 1941 RLU
Cefoxitin Concentration 1 ug/mL (indicator phage luminescence signal) ([11]; detected CFU 265, cefoxitin 1 ug/mL): 8987 RLU
Cefoxitin Concentration 2 ug/mL (indicator phage luminescence signal) ([11]; detected CFU 265, cefoxitin 2 ug/mL): 3377 RLU
Cefoxitin Concentration 4 ug/mL (indicator phage luminescence signal) ([11]; detected CFU 265, cefoxitin 4 ug/mL): 339 RLU
Cefoxitin Concentration 1 ug/mL (indicator phage luminescence signal) ([12]; detected CFU 169, cefoxitin 1 ug/mL): 10330 RLU
Cefoxitin Concentration 2 ug/mL (indicator phage luminescence signal) ([12]; detected CFU 169, cefoxitin 2 ug/mL): 10070 RLU
Cefoxitin Concentration 4 ug/mL (indicator phage luminescence signal) ([12]; detected CFU 169, cefoxitin 4 ug/mL): 5002 RLU
Cefoxitin Concentration 1 ug/mL (indicator phage luminescence signal) ([13]; detected CFU 197, cefoxitin 1 ug/mL): 21900 RLU
Cefoxitin Concentration 2 ug/mL (indicator phage luminescence signal) ([13]; detected CFU 197, cefoxitin 2 ug/mL): 172 RLU
Cefoxitin Concentration 4 ug/mL (indicator phage luminescence signal) ([13]; detected CFU 197, cefoxitin 4 ug/mL): 164 RLU
Cefoxitin Concentration 1.8 ug/mL (indicator phage luminescence signal) ([14]; detected CFU 14, cefoxitin 1.8 ug/mL): 2694 RLU
Cefoxitin Concentration 1 ug/mL (indicator phage luminescence signal) ([14]; detected CFU 142, cefoxitin 1 ug/mL): 72720 RLU
Cefoxitin Concentration 2 ug/mL (indicator phage luminescence signal) ([14]; detected CFU 142, cefoxitin 2 ug/mL): 19210 RLU
Cefoxitin Concentration 4 ug/mL (indicator phage luminescence signal) ([14]; detected CFU 142, cefoxitin 4 ug/mL): 240 RLU
Cefoxitin Concentration 1 ug/mL (indicator phage luminescence signal) ([15]; detected CFU 82, cefoxitin 1 ug/mL): 150100 RLU
Cefoxitin Concentration 2 ug/mL (indicator phage luminescence signal) ([15]; detected CFU 82, cefoxitin 2 ug/mL): 109000 RLU
Cefoxitin Concentration 4 ug/mL (indicator phage luminescence signal) ([15]; detected CFU 82, cefoxitin 4 ug/mL): 27170 RLU
Cefoxitin Concentration 1 ug/mL (indicator phage luminescence signal) ([16]; detected CFU 95, cefoxitin 1 ug/mL): 245000 RLU
Cefoxitin Concentration 2 ug/mL (indicator phage luminescence signal) ([16]; detected CFU 95, cefoxitin 2 ug/mL): 52910 RLU
Cefoxitin Concentration 4 ug/mL (indicator phage luminescence signal) ([16]; detected CFU 95, cefoxitin 4 ug/mL): 21 RLU
Cefoxitin Concentration 1 ug/mL (indicator phage luminescence signal) ([17]; detected CFU 356, cefoxitin 1 ug/mL): 1038000 RLU
Cefoxitin Concentration 2 ug/mL (indicator phage luminescence signal) ([17]; detected CFU 356, cefoxitin 2 ug/mL): 430200 RLU
Cefoxitin Concentration 4 ug/mL (indicator phage luminescence signal) ([17]; detected CFU 356, cefoxitin 4 ug/mL): 127400 RLU
Cefoxitin Concentration 1 ug/mL (indicator phage luminescence signal) ([18]; detected CFU 221, cefoxitin 1 ug/mL): 10420 RLU
Cefoxitin Concentration 2 ug/mL (indicator phage luminescence signal) ([18]; detected CFU 221, cefoxitin 2 ug/mL): 167 RLU
Cefoxitin Concentration 4 ug/mL (indicator phage luminescence signal) ([18]; detected CFU 221, cefoxitin 4 ug/mL): 188 RLU
Cefoxitin Concentration 1 ug/mL (indicator phage luminescence signal) ([19]; detected CFU 147, cefoxitin 1 ug/mL): 252900 RLU
Cefoxitin Concentration 2 ug/mL (indicator phage luminescence signal) ([19]; detected CFU 147, cefoxitin 2 ug/mL): 96700 RLU
Cefoxitin Concentration 4 ug/mL (indicator phage luminescence signal) ([19]; detected CFU 147, cefoxitin 4 ug/mL): 1971 RLU
Cefoxitin Concentration 1 ug/mL (indicator phage luminescence signal) ([20]; detected CFU 940, cefoxitin 1 ug/mL): 40620 RLU
Cefoxitin Concentration 2 ug/mL (indicator phage luminescence signal) ([20]; detected CFU 940, cefoxitin 2 ug/mL): 254 RLU
Cefoxitin Concentration 4 ug/mL (indicator phage luminescence signal) ([20]; detected CFU 940, cefoxitin 4 ug/mL): 582 RLU
Cefoxitin Concentration 1 ug/mL (indicator phage luminescence signal) ([21]; detected CFU 183, cefoxitin 1 ug/mL): 279700 RLU
Cefoxitin Concentration 2 ug/mL (indicator phage luminescence signal) ([21]; detected CFU 183, cefoxitin 2 ug/mL): 73090 RLU
Cefoxitin Concentration 4 ug/mL (indicator phage luminescence signal) ([21]; detected CFU 183, cefoxitin 4 ug/mL): 1519 RLU
